Some test systems named below: EKVX NSCLC; HOP-62 NSCLC; LOX IMVI melanoma; NCI-H460 lung; SF-539 CNS; SW-620 colon; UACC-62 melanoma; UO-31 renal; SF-268 CNS.
Holding throughout (assay): NCI anticancer screen, dose series, 48 h

The values below come from PubChem BioAssay (NCI).

Molecules are shown by their SMILES.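 The compound was tested at five concentrations on cells cultured in 96-well plates, with a 48-hour exposure period. GI50: concentration for 50% inhibition of growth. TGI denotes the concentration required for complete inhibition of growth.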

Turning to `CCOC(=O)C[C@@]12CCCNC1(C)CCc1ccccc12` (stereo partly drawn), the TGI in the test with EKVX NSCLC, in the test on HOP-62 NSCLC, with LOX IMVI melanoma, in the test with NCI-H460 lung, in the test on SF-539 CNS and with SW-620 colon was > 100 µM each time. Besides, the TGI in the test with UACC-62 melanoma and with UO-31 renal was > 100 µM each time.
On to `Cc1nnc(N=Nc2c(O)[nH]c3ccccc23)n1N`, for which the TGI in the test on EKVX NSCLC, in the test with HOP-62 NSCLC, in the test with LOX IMVI melanoma, in the test with NCI-H460 lung, with SF-268 CNS and with SF-539 CNS was > 100 µM in each case. In addition, the TGI in the test on SW-620 colon, in the test with UACC-62 melanoma and in the test with UO-31 renal was > 100 µM throughout.
With `CC1(C)OC(COCCOCCCCCO)C(COCCOCCCCCO)O1` (stereo not drawn), the TGI in the test on EKVX NSCLC, in the test with HOP-62 NSCLC, in the test with LOX IMVI melanoma, in the test with NCI-H460 lung, in the test on SF-268 CNS and in the test on SW-620 colon was > 100 µM in each case. In addition, the TGI with UACC-62 melanoma and in the test on UO-31 renal was > 100 µM in each case.
Take `Nc1ccn([C@@H]2C(F)=C(CO)[C@@H](O)[C@H]2O)c(=O)n1`: the GI50 in the test on EKVX NSCLC is 26.8 µM; in the test on LOX IMVI melanoma it was 453 nM; with NCI-H460 lung, 0.384 µM; in the test with SF-268 CNS, 1.53 µM; in the test with SF-539 CNS, 1.94 µM; in the test with SW-620 colon, 546 nM. Moreover, the figures for the GI50 with UACC-62 melanoma and in the test on UO-31 renal were 3780 nM and 0.462 µM, respectively. The TGI with EKVX NSCLC, with LOX IMVI melanoma, in the test with NCI-H460 lung, with SF-268 CNS, in the test on SF-539 CNS and in the test with SW-620 colon was > 100 µM throughout. Besides, the TGI in the test on UACC-62 melanoma and in the test with UO-31 renal was > 100 µM in each case.
With `O=C(Nc1cc(S(=O)(=O)c2ccc(Cl)cc2)ccc1Cl)c1cc(I)cc(I)c1O`, the GI50 with EKVX NSCLC was 20.2 µM; with HOP-62 NSCLC it was 18.6 µM; in the test on LOX IMVI melanoma, 18200 nM; with NCI-H460 lung, 15.2 µM; in the test on SF-268 CNS it was 18.5 µM; in the test on SF-539 CNS it was 18.6 µM. The GI50 was 16700 nM with SW-620 colon, 4200 nM with UACC-62 melanoma and 20.9 µM with UO-31 renal. Also, the TGI in the test on EKVX NSCLC worked out at 44.5 µM; in the test on HOP-62 NSCLC, 34.1 µM; in the test with LOX IMVI melanoma, 38.7 µM; in the test with NCI-H460 lung, 38.5 µM; with SF-268 CNS, 40.4 µM; in the test on SF-539 CNS, 38.2 µM. Besides, the TGI with SW-620 colon is 32 µM; in the test on UACC-62 melanoma, 15.5 µM; in the test with UO-31 renal, 38.8 µM.
Take `COc1cc2cccc(N=Cc3c(Br)ccc(OC)c3OC(C)C)c2cc1OC`: the TGI with EKVX NSCLC, with HOP-62 NSCLC, in the test on NCI-H460 lung, with SF-268 CNS, in the test with SF-539 CNS and with SW-620 colon was > 100 µM each time. For the same molecule, the TGI in the test with UACC-62 melanoma and in the test on UO-31 renal was > 100 µM each time.
`COc1nc2c(c(O)c(C)c(=O)n2OC2OC(COC(C)=O)C(OC(C)=O)C(OC(C)=O)C2OC(C)=O)c(=O)n1C` (stereo not drawn): the TGI in the test with EKVX NSCLC, in the test on HOP-62 NSCLC, in the test with LOX IMVI melanoma, in the test with NCI-H460 lung, in the test on SF-268 CNS and with SF-539 CNS was > 100 µM throughout. Besides, the TGI with SW-620 colon, in the test on UACC-62 melanoma and in the test with UO-31 renal was > 100 µM each time.
For the molecule `NC(N)=N/N=C/c1c(-c2ccc(Cl)c([N+](=O)[O-])c2)nc2n1CCS2`, the GI50 in the test on EKVX NSCLC was 12.7 µM; in the test with HOP-62 NSCLC it was 2.83 µM; with LOX IMVI melanoma, 2430 nM; with NCI-H460 lung it was 11.6 µM; in the test on SF-268 CNS, 16.1 µM; in the test on SF-539 CNS, 7.4 µM. Also, the GI50 is 1640 nM with UACC-62 melanoma and 26 µM in the test on UO-31 renal. Further, the TGI is 26.3 µM in the test with EKVX NSCLC; 9.44 µM in the test on HOP-62 NSCLC; 7.09 µM in the test with LOX IMVI melanoma; > 100 µM in the test with NCI-H460 lung; 40 µM in the test on SF-268 CNS; 26.5 µM in the test on SF-539 CNS. In addition, the values for the TGI in the test with UACC-62 melanoma and with UO-31 renal were 3.64 µM and 89 µM, respectively.
Take `CC(=O)[CH-]C(=O)c1ccccc1.CC(=O)[CH-]C(=O)c1ccccc1.[CH2-]CCC.[CH2-]CCC.[Sn+4]`: the GI50 in the test on EKVX NSCLC is 1.41 µM; in the test with LOX IMVI melanoma it was 1060 nM; with NCI-H460 lung, 2.11 µM; in the test on SF-268 CNS it was 1.19 µM; with SF-539 CNS, 1.36 µM; in the test with SW-620 colon, 283 nM. Moreover, the values for the GI50 in the test with UACC-62 melanoma and in the test with UO-31 renal were 754 nM and 1.37 µM, respectively. Further, the TGI in the test on EKVX NSCLC was 3.25 µM; in the test with LOX IMVI melanoma, 2.47 µM; with NCI-H460 lung, 4.62 µM; in the test on SF-268 CNS it was 3.39 µM; with SF-539 CNS, 2.77 µM; in the test with SW-620 colon it was 0.964 µM. Besides, the TGI in the test with UACC-62 melanoma turned out to be 2.17 µM; with UO-31 renal, 2.66 µM.
